Measurements reported in ChEMBL document CHEMBL3885881, “DrugMatrix”.

Species on record: Rattus norvegicus
Experiment: DrugMatrix - Regimen: Daily Repeat
Assay type: toxicity, organism-based, Sprague-Dawley
Parameters: regimen Daily Repeat, gender Male, age 6-8 weeks
Conditions: in vivo, po, route oral GAVAGE, vehicle .5 % CMC; for ABSOLUTE BASOPHIL / ABSOLUTE EOSINOPHIL / ABSOLUTE LYMPHOCYTE / ABSOLUTE MONOCYTE / ABSOLUTE SEGMENTED NEUTROPHIL / BASOPHIL / EOSINOPHIL / ERYTHROCYTE COUNT / HEMATOCRIT / HEMOGLOBIN / LEUKOCYTE COUNT / LYMPHOCYTE / MEAN CORPUSCULAR HEMOGLOBIN / MEAN CORPUSCULAR HEMOGLOBIN CONCENTRATION / MEAN CORPUSCULAR VOLUME / MONOCYTE / NEUTROPHIL / NUCLEATED RED BLOOD CELLS / PLATELET COUNT: tissue Blood; for ALANINE AMINOTRANSFERASE / ALBUMIN / ALKALINE PHOSPHATASE / ASPARTATE AMINOTRANSFERASE / BLOOD UREA NITROGEN / CARBON DIOXIDE / CHLORIDE / CHOLESTEROL / CREATINE PHOSPHOKINASE / CREATININE / GLUCOSE / LACTATE DEHYDROGENASE / LIPASE / PHOSPHORUS / POTASSIUM / SODIUM / TOTAL BILIRUBIN / TOTAL PROTEIN / URIC ACID: tissue Plasma
[1] = 10 mg/kg, 72 h, dose level Low, time 3 day
[2] = 10 mg/kg, 120 h, dose level Low, time 5 day
[3] = 310 mg/kg, 72 h, dose level High, time 3 day
[4] = 310 mg/kg, 120 h, dose level High, time 5 day

O=C1CN=C(c2ccccc2)c2cc([N+](=O)[O-])ccc2N1 [NITRAZEPAM]
ABSOLUTE BASOPHIL [1]: 0 CELLS/uL
ABSOLUTE EOSINOPHIL [1]: 19 CELLS/uL
ABSOLUTE LYMPHOCYTE [1]: 6878.67 CELLS/uL
ABSOLUTE MONOCYTE [1]: 19 CELLS/uL
ABSOLUTE SEGMENTED NEUTROPHIL [1]: 750 CELLS/uL
BASOPHIL [1]: 0%
EOSINOPHIL [1]: 0.33%
ERYTHROCYTE COUNT [1]: 5.13 x10E6/uL
HEMATOCRIT [1]: 31.73%
HEMOGLOBIN [1]: 12.93 G/DL
LEUKOCYTE COUNT [1]: 7.67 x10E3/uL
LYMPHOCYTE [1]: 90.33%
MEAN CORPUSCULAR HEMOGLOBIN [1]: 25.23 pg
MEAN CORPUSCULAR HEMOGLOBIN CONCENTRATION [1]: 40.73 G/DL
MEAN CORPUSCULAR VOLUME [1]: 61.9 fL
MONOCYTE [1]: 0.33%
NEUTROPHIL [1]: 9%
NUCLEATED RED BLOOD CELLS [1]: 0 /100WBC
PLATELET COUNT [1]: 847 x10E3/uL
ALANINE AMINOTRANSFERASE [1]: 48.67 u/L
ALBUMIN [1]: 4.23 G/DL
ALKALINE PHOSPHATASE [1]: 424.33 u/L
ASPARTATE AMINOTRANSFERASE [1]: 76.67 u/L
BLOOD UREA NITROGEN [1]: 15 mg/dL
CARBON DIOXIDE [1]: 31 mmol/L
CHLORIDE [1]: 103 MEQ/L
CHOLESTEROL [1]: 76.67 mg/dL
CREATINE PHOSPHOKINASE [1]: 169 u/L
CREATININE [1]: 0.18 mg/dL
GLUCOSE [1]: 141.67 mg/dL
LACTATE DEHYDROGENASE [1]: 124.67 u/L
LIPASE [1]: 10 u/L
PHOSPHORUS [1]: 10.73 mg/dL
POTASSIUM [1]: 5.83 MEQ/L
SODIUM [1]: 149.6 MEQ/L
TOTAL BILIRUBIN [1]: 0.2 mg/dL
TOTAL PROTEIN [1]: 5.43 G/DL
URIC ACID [1]: 0.9 mg/dL
ABSOLUTE BASOPHIL [2]: 0 CELLS/uL
ABSOLUTE EOSINOPHIL [2]: 0 CELLS/uL
ABSOLUTE LYMPHOCYTE [2]: 11358.67 CELLS/uL
ABSOLUTE MONOCYTE [2]: 0 CELLS/uL
ABSOLUTE SEGMENTED NEUTROPHIL [2]: 1008 CELLS/uL
BASOPHIL [2]: 0%
EOSINOPHIL [2]: 0%
ERYTHROCYTE COUNT [2]: 5.81 x10E6/uL
HEMATOCRIT [2]: 35.47%
HEMOGLOBIN [2]: 13.93 G/DL
LEUKOCYTE COUNT [2]: 12.37 x10E3/uL
LYMPHOCYTE [2]: 92%
MEAN CORPUSCULAR HEMOGLOBIN [2]: 24.07 pg
MEAN CORPUSCULAR HEMOGLOBIN CONCENTRATION [2]: 39.33 G/DL
MEAN CORPUSCULAR VOLUME [2]: 61.13 fL
MONOCYTE [2]: 0%
NEUTROPHIL [2]: 8%
NUCLEATED RED BLOOD CELLS [2]: 0 /100WBC
PLATELET COUNT [2]: 1206.67 x10E3/uL
ALANINE AMINOTRANSFERASE [2]: 43.67 u/L
ALBUMIN [2]: 4.43 G/DL
ALKALINE PHOSPHATASE [2]: 331.67 u/L
ASPARTATE AMINOTRANSFERASE [2]: 77.33 u/L
BLOOD UREA NITROGEN [2]: 18 mg/dL
CARBON DIOXIDE [2]: 26.67 mmol/L
CHLORIDE [2]: 102 MEQ/L
CHOLESTEROL [2]: 67.67 mg/dL
CREATINE PHOSPHOKINASE [2]: 186.67 u/L
CREATININE [2]: 0.2 mg/dL
GLUCOSE [2]: 147.33 mg/dL
LACTATE DEHYDROGENASE [2]: 109.33 u/L
LIPASE [2]: 9.33 u/L
PHOSPHORUS [2]: 13.13 mg/dL
POTASSIUM [2]: 6.92 MEQ/L
SODIUM [2]: 147.33 MEQ/L
TOTAL BILIRUBIN [2]: 0.23 mg/dL
TOTAL PROTEIN [2]: 6.4 G/DL
URIC ACID [2]: 2.13 mg/dL
ABSOLUTE BASOPHIL [3]: 0 CELLS/uL
ABSOLUTE EOSINOPHIL [3]: 0 CELLS/uL
ABSOLUTE LYMPHOCYTE [3]: 11568.33 CELLS/uL
ABSOLUTE MONOCYTE [3]: 226.67 CELLS/uL
ABSOLUTE SEGMENTED NEUTROPHIL [3]: 871.67 CELLS/uL
BASOPHIL [3]: 0%
EOSINOPHIL [3]: 0%
ERYTHROCYTE COUNT [3]: 5.41 x10E6/uL
HEMATOCRIT [3]: 34%
HEMOGLOBIN [3]: 13.63 G/DL
LEUKOCYTE COUNT [3]: 12.67 x10E3/uL
LYMPHOCYTE [3]: 90.67%
MEAN CORPUSCULAR HEMOGLOBIN [3]: 25.23 pg
MEAN CORPUSCULAR HEMOGLOBIN CONCENTRATION [3]: 40.1 G/DL
MEAN CORPUSCULAR VOLUME [3]: 62.87 fL
MONOCYTE [3]: 1.67%
NEUTROPHIL [3]: 7.67%
NUCLEATED RED BLOOD CELLS [3]: 0 /100WBC
PLATELET COUNT [3]: 1116 x10E3/uL
ALANINE AMINOTRANSFERASE [3]: 48 u/L
ALBUMIN [3]: 4.03 G/DL
ALKALINE PHOSPHATASE [3]: 270 u/L
ASPARTATE AMINOTRANSFERASE [3]: 93.33 u/L
BLOOD UREA NITROGEN [3]: 15.67 mg/dL
CARBON DIOXIDE [3]: 27.67 mmol/L
CHLORIDE [3]: 100 MEQ/L
CHOLESTEROL [3]: 88.67 mg/dL
CREATINE PHOSPHOKINASE [3]: 222.67 u/L
CREATININE [3]: 0.17 mg/dL
GLUCOSE [3]: 150.33 mg/dL
LACTATE DEHYDROGENASE [3]: 150.67 u/L
LIPASE [3]: 8 u/L
PHOSPHORUS [3]: 11.93 mg/dL
POTASSIUM [3]: 6.17 MEQ/L
SODIUM [3]: 143.67 MEQ/L
TOTAL BILIRUBIN [3]: 0.2 mg/dL
TOTAL PROTEIN [3]: 5.7 G/DL
URIC ACID [3]: 1.3 mg/dL
ABSOLUTE BASOPHIL [4]: 0 CELLS/uL
ABSOLUTE EOSINOPHIL [4]: 37.33 CELLS/uL
ABSOLUTE LYMPHOCYTE [4]: 8871.33 CELLS/uL
ABSOLUTE MONOCYTE [4]: 96.67 CELLS/uL
ABSOLUTE SEGMENTED NEUTROPHIL [4]: 1228 CELLS/uL
BASOPHIL [4]: 0%
EOSINOPHIL [4]: 0.33%
ERYTHROCYTE COUNT [4]: 6.24 x10E6/uL
HEMATOCRIT [4]: 37.73%
HEMOGLOBIN [4]: 14.83 G/DL
LEUKOCYTE COUNT [4]: 10.23 x10E3/uL
LYMPHOCYTE [4]: 86.67%
MEAN CORPUSCULAR HEMOGLOBIN [4]: 23.77 pg
MEAN CORPUSCULAR HEMOGLOBIN CONCENTRATION [4]: 39.33 G/DL
MEAN CORPUSCULAR VOLUME [4]: 60.47 fL
MONOCYTE [4]: 1%
NEUTROPHIL [4]: 12%
NUCLEATED RED BLOOD CELLS [4]: 0 /100WBC
PLATELET COUNT [4]: 1180.33 x10E3/uL
ALANINE AMINOTRANSFERASE [4]: 39.67 u/L
ALBUMIN [4]: 4.13 G/DL
ALKALINE PHOSPHATASE [4]: 195.33 u/L
ASPARTATE AMINOTRANSFERASE [4]: 76.33 u/L
BLOOD UREA NITROGEN [4]: 17.33 mg/dL
CARBON DIOXIDE [4]: 26.33 mmol/L
CHLORIDE [4]: 104 MEQ/L
CHOLESTEROL [4]: 87.67 mg/dL
CREATINE PHOSPHOKINASE [4]: 160 u/L
CREATININE [4]: 0.19 mg/dL
GLUCOSE [4]: 148.67 mg/dL
LACTATE DEHYDROGENASE [4]: 101 u/L
LIPASE [4]: 40.67 u/L
PHOSPHORUS [4]: 9.83 mg/dL
POTASSIUM [4]: 6.59 MEQ/L
SODIUM [4]: 145.77 MEQ/L
TOTAL BILIRUBIN [4]: 0.13 mg/dL
TOTAL PROTEIN [4]: 6 G/DL
URIC ACID [4]: 1.17 mg/dL
